{"source": "paper PMC5534107", "about": "“Sensitization of ASIC3 by proteinase-activated receptor 2 signaling contributes to acidosis-induced nociception” (Journal of Neuroinflammation, 2017)", "key": {"[1]": {"tested_on": "ASIC3-like currents in rat DRG neurons", "assay": "Voltage clamp of proton-evoked ASIC3-like currents in acutely isolated rat DRG neurons", "format": "cell-based", "description": "(§1) The experimental protocol was approved by the animal research ethics committee of Hubei University of Science and Technology (No. 2016–67). All procedures conformed to international guidelines on the ethical use of animals, and every effort was made to minimize the number of animals used and their sufferings. Five- to 6-week-old Sprague–Dawley male rats were anesthetized with 7% chloral hydrate and then decapitated. The DRGs were taken out and transferred immediately into Dulbecco’s modified Eagle’s medium (DMEM, Sigma) at pH 7.4. After the removal of the surrounding connective tissues, the DRGs were minced with fine spring scissors and the ganglion fragments were placed in a flask containing 5 ml of DMEM in which trypsin (type II-S, Sigma) 0.5 mg/ml, collagenase (type I-A, Sigma) 1.0 mg/ml, and DNase (type IV, Sigma) 0.1 mg/ml had been dissolved and incubated at 35 °C in a shaking water bath for 25–30 min. Soybean trypsin inhibitor (type II-S, Sigma) 1.25 mg/ml was then added to stop trypsin digestion. The incubating solution was then replaced by external solution. Dissociated neurons were placed into a 35-mm Petri dish and kept for at least 1 h in normal external solution before the start of electrophysiological experiments. After plating of the DRG neurons, the neurons were used for experiments within 24 h. The neurons selected for electrophysiological experiment were 15–35 μm in diameter.\nWhole-cell patch clamp and voltage clamp recordings were carried out at room temperature (22–25 °C) using a MultiClamp-700B amplifier and Digidata-1440A A/D converter (Axon Instruments, CA, USA). Recording pipettes were pulled using a Sutter P-97 puller (Sutter Instruments, CA, USA). The micropipettes were filled with internal solution containing (mM) KCl 140, MgCl2 2.5, HEPES 10, EGTA 11, and ATP 5; its pH was adjusted to 7.2 with KOH, and osmolarity was adjusted to 310 mOsm/L with sucrose. Cells were bathed in an external solution containing (mM) NaCl 150, KCl 5, CaCl2 2.5, MgCl2 2, HEPES 10, D-glucose 10; its osmolarity was adjusted to 330 mOsm/L with sucrose and its pH to 7.4. The resistance of the recording pipette was in the range of 3–6 MΩ. A small patch of membrane underneath the tip of the pipette was aspirated to form a giga seal, and then, a negative pressure was applied to rupture it, thus establishing a whole-cell configuration. The series resistance was compensated for by 70–80%. The adjustment of capacitance compensation was also done before recording the membrane currents. […]\n(§2) Drugs purchased from Sigma and used in the experiments include hydrochloric acid, 2-furoyl-LIGRLO-NH2 (a PAR2-activating peptide (PAR2-AP)), trypsin, FSLLRY-NH2, APETx2, and capsazepine. […] The application pipette tips were positioned ∼30 μm away from the recorded neurons. […]"}, "[2]": {"tested_on": "ASIC3 currents in CHO cells co-expressing ASIC3 and PAR2", "assay": "Whole-cell patch clamp of proton-gated currents (I pH 6.6) in CHO cells co-expressing ASIC3 and PAR2", "format": "cell-based, Chinese hamster", "protocol": "(§3) ASIC3, ASIC1a, ASIC1b, ASIC2b, and PAR2 complementary DNAs (cDNAs) were used for heterologous expression in CHO cells as described previously (Wang et al., 2013). In brief, CHO cells were cultured at 37 °C in a humidified atmosphere of 5% CO2 and […] and passaged twice a week. Transient transfection of CHO cells was performed using HilyMax liposome transfection reagent (Dojindo Laboratories). CHO cells were maintained in F-12 Nutrient Mixture (added 1.176 g of NaHCO3/L medium) supplemented with 10% fetal bovine serum and 1% gluta-MAXTM-1 (100×; Invitrogen). When ASIC3 and PAR2 cDNAs were co-transfected, the ratio was kept at 1:1. All plasmids used contained, in addition to the desired ASIC3 cDNA, the coding sequence for enhanced green fluorescent protein to aid identification of transfected cells. Electrophysiological measurements were performed 24–48 h after transfection.\nWhole-cell patch clamp and voltage clamp recordings were carried out at room temperature (22–25 °C) using a MultiClamp-700B amplifier and Digidata-1440A A/D converter (Axon Instruments, CA, USA). Recording pipettes were pulled using a Sutter P-97 puller (Sutter Instruments, CA, USA). The micropipettes were filled with internal solution containing (mM) KCl 140, MgCl2 2.5, HEPES 10, EGTA 11, and ATP 5; its pH was adjusted to 7.2 with KOH, and osmolarity was adjusted to 310 mOsm/L with sucrose. Cells were bathed in an external solution containing (mM) NaCl 150, KCl 5, CaCl2 2.5, MgCl2 2, HEPES 10, D-glucose 10; its osmolarity was adjusted to 330 mOsm/L with sucrose and its pH to 7.4. The resistance of the recording pipette was in the range of 3–6 MΩ. A small patch of membrane underneath the tip of the pipette was aspirated to form a giga seal, and then, a negative pressure was applied to rupture it, thus establishing a whole-cell configuration. The series resistance was compensated for by 70–80%. The adjustment of capacitance compensation was also done before recording the membrane currents. The membrane voltage was maintained at −60 mV in all voltage clamp experiments unless otherwise specified. Current clamp recordings were obtained by switching to current clamp mode after a stable whole-cell configuration was formed in voltage clamp mode. Only cells with a stable resting membrane potential (more negative than −50 mV) were used in the study. Signals were sampled at 10 to 50 kHz and filtered at 2 to 10 kHz, and the data were stored in compatible PC computer for off-online analysis using the pCLAMP 10 acquisition software (Axon Instruments, CA, USA).\nDrugs purchased from Sigma and used in the experiments include hydrochloric acid, 2-furoyl-LIGRLO-NH2 (a PAR2-activating peptide (PAR2-AP)), trypsin, FSLLRY-NH2, APETx2, and capsazepine. Different pH values were configured with hydrochloric acid and external solution. All drugs were dissolved daily in the external solution just before use and held in a linear array of fused silica tubes (o.d./i.d. = 500 μm/200 μm) connected to a series of independent reservoirs. The application pipette tips were positioned ∼30 μm away from the recorded neurons. The application of each drug was driven by gravity and controlled by the corresponding valve, and rapid solution exchange could be achieved within about 100 ms by shifting the tubes horizontally with a PC-controlled micromanipulator. Cells were constantly bathed in normal external solution flowing from one tube connected to a larger reservoir between drug applications. In some experiments where GDP-β-S (Sigma), U-73122(Sigma), and GF109203X (RBI) were applied for intracellular dialysis through recording patch pipettes, they were dissolved in the internal solution before use. To ensure that the cell interior was perfused with the dialysis drug, there was at least a 30-min interval between the establishment of whole-cell access and the current measurement. […]"}, "rats": {"tested_on": "rats", "assay": "Nociceptive behavior (flinches) induced by intraplantar acetic acid in rats", "format": "in vivo, rat", "conditions": "n = 10", "protocol": "Rats were placed in a 30 × 30 × 30 cm Plexiglas chamber and allowed to habituate for at least 30 min before nociceptive behavior experiments. A blind experiment was carried out. Separate groups of rats were coded and pretreated with 20 μl capsazepine (100 μM) together with vehicle and different dosages of PAR2-AP, FSLLRY-NH2, or APETx2 in the ipsilateral hind paw before injection of acetic acid. […] And nociceptive behavior (that is, number of flinches) was counted over a 5-min period starting immediately after the injection.\nWe finally ascertain whether PAR2-AP facilitates pain-related behaviors through interacting with ASIC3 in vivo. Acetic acid (0.6%) was injected into the right hind paws of rats and measured the number of flinches that the animals spent licking and/or lifting the injected paw. Intraplantar injection of acetic acid elicits an intense flinch/shaking response which mainly occurred during 0–5 min after injection of acetic acid. […] However, the low dose (1 μg) of PAR2-AP had no effect on the acidosis-induced nocifensive behaviors (Bonferroni’s post hoc test, P > 0.1, n = 10). In addition, the exacerbating effect of 10 μg PAR2-AP on acidosis-induced nocifensive behaviors was blocked by co-administration of 20 μg FSLLRY-NH2, a selective PAR2 antagonist (Bonferroni’s post hoc test, P < 0.01, compared with 10 μg PAR2-AP alone, n = 10; Fig. 6a)."}, "rat DRG neurons": {"tested_on": "rat DRG neurons", "assay": "Current clamp of acidosis-evoked action potentials (spikes) in rat DRG neurons", "format": "cell-based", "conditions": "APETx2 2 μM; pH 6.6 for 5 s; capsazepine 10 μM", "description": "as §1, with “Dissociated neurons were placed into a 35-mm Petri dish and kept for at least 1 h in normal external solution before the start of electrophysiological experiments. After plating of the DRG neurons, the neurons were used for experiments within 24 h. The neurons selected for electrophysiological experiment were 15–35 μm in diameter.” left out\nas §2"}, "[3]": {"tested_on": "ASIC3 currents in CHO cells expressing alone ASIC3, but not expressing PAR2", "assay": "Whole-cell patch clamp, CHO cells expressing ASIC3 alone (no PAR2)", "format": "cell-based, Chinese hamster", "conditions": "10^−5 M; P > 0.1; n = 10", "protocol": "as §3\nWhole-cell patch clamp and voltage clamp recordings were carried out at room temperature (22–25 °C) using a MultiClamp-700B amplifier and Digidata-1440A A/D converter (Axon Instruments, CA, USA). […]\nas §2"}}}
{"molecule": "APETx2", "values": [{"measurement": "effect on proton-induced ASIC current (I pH 6.6) in DRG neurons", "setting": "[1]; APETx2 2 μM, eight DRG neurons, capsazepine 10 μM", "value": "completely blocked"}, {"measurement": "effect on peak ASIC current (I pH 6.6)", "setting": "[2]; APETx2 500 nM", "value": "inhibited the peak ASIC current"}, {"measurement": "effect on sustained plateau current (I pH 6.6)", "setting": "[2]; APETx2 500 nM", "value": "without affecting the sustained plateau"}, {"measurement": "effect on acetic acid-induced nociceptive response", "setting": "rats; APETx2 20 μM, 20 μl intraplantar, P < 0.01", "value": "potently blocked"}, {"measurement": "effect on increased pain behavior induced by 10 μg PAR2-AP", "setting": "rats; APETx2 20 μM, 20 μl intraplantar, P < 0.01 vs PAR2-AP", "value": "potently inhibited"}, {"measurement": "effect on acidosis-evoked spikes", "setting": "rat DRG neurons", "value": "completely blocked"}]}
{"molecule": "COc1ccc2c(c1)CC[C@@H]1[C@@H]2CC[C@]2(C)[C@@H](NCCCCCCN3C(=O)C=CC3=O)CC[C@@H]12", "note": "[U-73122]", "values": [{"measurement": "PAR2-AP-induced increase of I pH 6.6 with U-73122 in the pipette solution", "setting": "[2]; U-73122 10 μM intracellular dialysis, PAR2-AP 10^−5 M for 1 min, n = 10", "value": "6.9 ± 2.8", "unit": "%"}]}
{"molecule": "FSLLRY-NH2", "values": [{"measurement": "effect of FSLLRY-NH2 on trypsin potentiation of ASIC currents in DRG neurons", "setting": "[1]; FSLLRY-NH2 10^−5 M, trypsin 10^−5 M", "value": "inhibited"}, {"measurement": "increase of peak amplitude of I pH 6.6 in DRG neurons when PAR2-AP co-treated with FSLLRY-NH2", "setting": "[1]; PAR2-AP 10^−5 M + FSLLRY-NH2 10^−5 M, capsazepine 10 μM, n = 9, P < 0.01 vs PAR2-AP alone", "value": "9.3 ± 44", "unit": "%"}, {"measurement": "change of peak amplitude of I pH 6.6 after pretreatment with FSLLRY-NH2 alone", "setting": "[2]; 10^−5 M", "value": "≤ 5", "unit": "%"}, {"measurement": "PAR2-AP-induced increase of ASIC3 currents in cells pretreated with FSLLRY-NH2", "setting": "[2]; PAR2-AP 10^−5 M + FSLLRY-NH2 10^−5 M, n = 10, P < 0.01 vs PAR2-AP alone", "value": "7.3 ± 7.1", "unit": "%"}, {"measurement": "trypsin-induced increase of ASIC3 currents in cells pretreated with FSLLRY-NH2", "setting": "[2]; trypsin 10^−5 M + FSLLRY-NH2 10^−5 M, n = 10", "value": "8.4 ± 6.2", "unit": "%"}, {"measurement": "effect on exacerbation of acidosis-induced nocifensive behaviors by 10 μg PAR2-AP", "setting": "rats; FSLLRY-NH2 20 μg co-administered, P < 0.01 vs 10 μg PAR2-AP alone", "value": "blocked"}]}
{"molecule": "trypsin: protease, possible physiological ligand of PAR2; cleaves and activates PAR2", "values": [{"measurement": "effect on I pH 6.6 in ASIC3-transfected CHO cells without PAR2", "setting": "[3]", "value": "Neither PAR2-AP nor trypsin had an effect"}, {"measurement": "increase of peak amplitude of I pH 6.6 after pretreatment with agonist alone", "setting": "[2]; 10^−5 M for 1 min, n = 10", "value": "48.7 ± 8.3", "unit": "%"}]}
{"molecule": "O=S(=O)(NCCNC/C=C/c1ccc(Br)cc1)c1cccc2cnccc12", "note": "[H-89]", "values": [{"measurement": "PAR2-AP-induced increase of I pH 6.6 with H-89 in the pipette solution", "setting": "[2]; H-89 10 μM intracellular dialysis, PAR2-AP 10^−5 M for 1 min, n = 10", "value": "15.3 ± 5.8", "unit": "%"}]}
{"molecule": "CN(C)CCCn1cc(C2=C(c3c[nH]c4ccccc34)C(=O)NC2=O)c2ccccc21", "note": "[GF109203X]", "values": [{"measurement": "PAR2-AP-induced increase of I pH 6.6 with GF109203X in the pipette solution", "setting": "[2]; GF109203X 2 μM intracellular dialysis, PAR2-AP 10^−5 M for 1 min, n = 10", "value": "3.2 ± 6.0", "unit": "%"}]}
